Experimental data reported in patent US11912695B2, “Benzodiazepine derivatives as RSV inhibitors” (ENANTA PHARMACEUTICALS, INC., priority 2019, dated 2024).

What was measured:
[1] = system: Human RSV-B (genotype B, strain 9320); experiment: RSV-B assay (qPCR or ATPlite) in A549 cells; type: cell-based; conditions: human respiratory syncytial virus, 144 h, strain 9320, MOI 0.5, 6 days post infection, qPCR or ATPlite readout
From the text: Hep-2 cells, (originally derived from tumors grown in irradiated-cortisonised weanling rats that had been injected with epidermoid carcinoma tissue from a person's larynx, but later found to be indistinguishable from HeLa cells by PCR DNA analysis), were used for the culturing of genotype B, strain 9320. Flasks were inoculated with RSV-B and viral stocks were collected once cytopathic effect (CPE) was greater than 90%. Viral stocks in 25% sucrose media were snap frozen using liquid nitrogen to increase viral stability. Viral stock titers were quantified by tissue culture infectious dose 50% (TCID50) using 8,000 cells per well and 5-fold viral dilutions across a 96-well plate, cultured for 4 days. Viral stock titers were also quantified by a plaque forming unit assay, as described elsewhere.
The assay is run as follows: A549 cells (originally derived through explant culture from a person's carcinomatous lung tissue) are seeded into the inner 60 wells of a 96-well plate at 3,000 cells per well in a volume of 50 μL using A549 growth media (F-12K Media, 1% Penn/Strep, 1% nonessential amino acids, 10% heat-inactivated FBS). 2-fold serial dilutions of control and test compounds are added to the wells in duplicate in a total volume of 25 μL. Viral stock is then added to the wells at a multiplicity of infection (MOI) of 0.5 in a volume of 25 μL, bringing the total volume of each well to 100 μL. The MOI is calculated using the PFU/mL, or TCID50 if unavailable. Each 96-well plate has a control column of 6 wells with cells and virus but no compound (negative control, max CPE), a column with cells but no compound or virus (positive control, minimum CPE), and a column with no cells or virus or compound (background plate/reagent control). The control wells with cells but no virus are given an additional 25 μL of growth media containing an equal quantity of sucrose as those wells receiving the viral stock in order to keep consistent in media and volume conditions. The outer wells of the plate are filled with 125 μL of moat media (DMEM, 1% Penn/Strep) to act as a thermal and evaporative moat around the test wells. 6 days post infection, the plates are read using qPCR or ATP lite (50 μL added per well), which quantifies the amount of ATP (a measure of cell health) present in each well. Assay plates treated with APTlite are read using the Envision luminometer. […] EC50 ranges are as follows: A<0.4 μM; B 0.4-0.8 μM; C>0.8 μM.

[2] = system: Human RSV-A (“Long” strain); experiment: RSV-A assay (CPE, ATPlite) in Hep-2 cells; type: cell-based; conditions: human respiratory syncytial virus, 120 h, MOI 0.1, 5-day incubation, ATPlite readout
From the text: Hep-2 cells, (originally derived from tumors grown in irradiated-cortisonised weanling rats that had been injected with epidermoid carcinoma tissue from a person's larynx, but later found to be indistinguishable from HeLa cells by PCR DNA analysis), were used for the culturing of genotype A, “Long” strain RSV. Flasks were inoculated with RSV and viral stocks were collected once cytopathic effect (CPE) was greater than 90%. Viral stocks in 25% sucrose media were snap frozen using liquid nitrogen to increase viral stability. Viral stock titers were quantified by tissue culture infectious dose 50% (TCID50) using 8,000 cells per well and 3-fold viral dilutions across a 96-well plate, cultured for 4 days. Viral stock titers were also quantified by a plaque forming unit assay, as described elsewhere.
Following extensive parameter testing, the final assay is run as follows: Hep-2 cells are seeded into the inner 60 wells of a 96-well plate at 8,000 cells per well in a volume of 50 μL using Growth Media (DMEM without phenol red, 1% L-Glut, 1% Penn/Strep, 1% nonessential amino acids, 10% heat-inactivated FBS). 2-fold serial dilutions of control and test compounds are added to the wells in duplicate in a total volume of 25 μL. Viral stock is then added to the wells at a multiplicity of infection (MOI) of 0.1 in a volume of 25 μL, bringing the total volume of each well to 100 μL. The MOI is calculated using the PFU/mL, or TCID50 if unavailable. Each 96-well plate has a control column of 6 wells with cells and virus but no compound (negative control, max CPE), a column with cells but no compound or virus (positive control, minimum CPE), and a column with no cells or virus or compound (background plate/reagent control). The control wells with cells but no virus are given an additional 25 μL of growth media containing an equal quantity of sucrose as those wells receiving the viral stock in order to keep consistent in media and volume conditions. The outer wells of the plate are filled with 125 μL of moat media (DMEM, 1% Penn/Strep) to act as a thermal and evaporative moat around the test wells. Following a 5-day incubation period, the plates are read using ATPlite (50 μL added per well), which quantifies the amount of ATP (a measure of cell health) present in each well. Assay plates are read using the Envision luminometer. In parallel, cytotoxicity is examined on an additional 96-well plate treated in an identical manner, but substituting the 25 μL of viral stock for 25 μL of growth media. […] EC50 ranges are as follows: A<0.4 μM; B 0.4-0.8 μM; C>0.8 μM.

Compound	EC50 [1] [µM]	EC50 [2] [µM]
O=C1Nc2c(F)cccc2C(c2ccccc2)=N[C@@H]1Nc1nnc(-c2nc(C3CCC3)sc2-c2cnc(C3CC3)nc2)o1 [Example 65]	< 0.4	< 0.4
O=C1Nc2ccccc2C(c2ccccc2)=N[C@@H]1Nc1nnc(-c2ncc(C(F)(F)F)cc2-c2cnc(C3CC3)nc2)o1 [Example 25]	< 0.4	< 0.4
Cc1ncc(-c2sc(C3CC3)nc2-c2nnc(N[C@H]3N=C(c4ccccc4)c4cccc(F)c4NC3=O)o2)cn1 [Example 56]	< 0.4	< 0.4
O=C1Nc2c(F)cccc2C(c2ccccc2)=N[C@@H]1Nc1nnc(-c2nc(C3CC3)sc2-c2cnc(C3CC3)nc2)o1 [Example 48]	< 0.4	< 0.4
O=C1Nc2ccccc2C(c2ccccc2)=NC1Nc1nnc(-c2nc(C(F)(F)F)sc2-c2cnc(C3CC3)nc2)o1 (centres unmarked) [Example 34]	< 0.4	< 0.4
CCc1nc(-c2nnc(N[C@@H]3N=C(c4ccccc4)c4cccc(F)c4NC3=O)o2)c(-c2cnc(C)nc2)s1 [Example 51]	< 0.4	0.4 to 0.8
O=C1Nc2c(F)cccc2C(c2ccccc2)=N[C@H]1Nc1nnc(-c2nc(C3(C(F)(F)F)CC3)sc2-c2cnc(C3CC3)nc2)o1 [Example 74]	< 0.4	> 0.8
CCc1nc(-c2nnc(N[C@H]3N=C(c4ccccc4)c4cccc(F)c4NC3=O)o2)c(-c2cnc(C)nc2)s1 [Example 52]	< 0.4	< 0.4
O=C1Nc2ccccc2C(c2ccccc2)=NC1Nc1nnc(-c2ncc(C(F)(F)F)cc2-c2cnc(CO)nc2)o1 (centres unmarked) [Example 9]	> 0.8	> 0.8
O=C1Nc2ccccc2C(c2ccccc2)=N[C@@H]1Nc1nnc(-c2ncc(C(F)F)cc2-c2cnc(C3CC3)nc2)o1 [Example 98]	< 0.4	< 0.4
O=C1Nc2ccccc2C(c2ccccc2)=NC1Nc1nnc(-c2ncc(C(F)(F)F)cc2-c2cnc(Cl)nc2)o1 (centres unmarked) [Example 14, 3-((5-(3-(2-chloropyrimidin-5-yl)-5-(trifluoromethyl)pyridin-2-yl)-1,3,4-oxadiazol-2-yl)amino)-5-phenyl-1,3-dihydro-2H-benzo[e][1,4]diazepin-2-one]	> 0.8	> 0.8
COc1ncc(-c2cc(C(F)(F)F)cnc2-c2nnc(NC3N=C(c4ccccc4)c4ccccc4NC3=O)o2)cn1 (centres unmarked) [Example 3]	0.4 to 0.8	0.4 to 0.8
CCc1ncc(-c2sc(C(F)(F)F)nc2-c2nnc(N[C@@H]3N=C(c4ccccc4)c4cccc(F)c4NC3=O)o2)cn1 [Example 42]	< 0.4	< 0.4
